From the Kinase Knowledgebase extract (Sharma et al. 2016)

Target: CDK2 (human) (UniProt P24941)
Test: Enzyme Assay

Row | SMILES | Ki [µM]
1 | Cc1cnc(NC2CCC(Nc3ccc4c(=O)[nH][nH]c4c3)C2)s1 (centres undefined) | < 1
2 | Cc1cc(Nc2cc(N3CCOCC3)nc(OCc3ccc4c(=O)[nH][nH]c4c3)n2)n[nH]1 | < 1
3 | Cc1cccc2c(Nc3cc(-c4ccco4)[nH]n3)nc(-c3ccc4[nH][nH]c(=O)c4c3OC(F)(F)F)nc12 | < 1
4 | O=c1[nH][nH]c2cc(C(F)(F)F)c(-c3nc(Nc4n[nH]c5c(F)cc(F)cc45)c4cnsc4n3)cc12 | < 1
5 | CN1CCC(OCc2cc(Nc3cc(C4CC4)[nH]n3)nc(Sc3ccc4c(=O)[nH][nH]c4c3)n2)CC1 | < 1
6 | O=c1[nH][nH]c2cc(NC3CCC(Nc4nccnn4)C3)ccc12 (centres undefined) | < 1
7 | O=c1[nH][nH]c2cc(Oc3nccc(Nc4cc(C5CC5)[nH]n4)n3)ccc12 | < 1
8 | CN(C)CCNC(=O)c1cc(Nc2cc(C3CC3)[nH]n2)nc(Sc2ccc3c(=O)[nH][nH]c3c2)n1 | < 1
9 | O=c1[nH][nH]c2ccc(-c3nc4c(c(Nc5n[nH]c6ccccc56)n3)CCCC4)c(C(F)(F)F)c12 | < 1
10 | O=c1[nH][nH]c2cc(CCC3CCC(Nc4nccnn4)C3)ccc12 (centres undefined) | < 1
11 | Cc1cnc(NC2CCCC(Nc3ccc4c(=O)[nH][nH]c4c3)C2)s1 (centres undefined) | < 1
12 | CN1CCN(c2cc(Nc3cc(C4CC4)[nH]n3)nc(Sc3ccc4c(=O)[nH][nH]c4c3)n2)CC1 | < 1
13 | CCc1cc(Nc2nc(-c3ccncc3)nc(-c3ccc4[nH][nH]c(=O)c4c3)n2)n[nH]1 | < 1
14 | CCc1cc(Nc2cc(C)[nH]n2)nc(COc2ccc3[nH][nH]c(=O)c3c2)n1 | < 1
15 | CN(C)CCNc1nnc(Nc2n[nH]c3ccccc23)cc1-c1ccc2[nH][nH]c(=O)c2c1Cl | < 1
16 | O=c1[nH][nH]c2ccc(C3CCC(Nc4nccnn4)C3)cc12 (centres undefined) | < 1
17 | NCCOc1cccc2c(Nc3n[nH]c4ccccc34)nc(-c3ccc4[nH][nH]c(=O)c4c3C(F)(F)F)nc12 | < 1

Row | SMILES | Ki [µM]
18 | Cc1cc(Nc2nc(CCc3ccc4[nH][nH]c(=O)c4c3)nc3c2CCCC3)n[nH]1 | < 1
19 | Cc1cc(Nc2nc(Nc3ccc4c(=O)[nH][nH]c4c3)nc(C)c2C)n[nH]1 | < 1
20 | Cc1nc(Oc2ccc3c(=O)[nH][nH]c3c2)nc(Nc2cc(C3CC3)[nH]n2)c1C | < 1
21 | Cc1cc(Nc2cc(C)[nH]n2)nc(C2(c3ccc4c(=O)[nH][nH]c4c3)CC2)n1 | < 1
22 | Nc1c(Nc2ccc3c(=O)[nH][nH]c3c2)ncnc1Nc1cc(C2CC2)[nH]n1 | < 1
23 | O=c1[nH][nH]c2cc(NC3COCC(Nc4nccnn4)C3)ccc12 (centres undefined) | < 1
24 | O=c1[nH][nH]c2ccc(-c3nc(Nc4n[nH]c5c4CCCC5)c4ccccc4n3)c(C(F)(F)F)c12 | < 1
25 | O=c1[nH][nH]c2cc(COC3CCCC3Nc3cc(C4CC4)[nH]n3)ccc12 (centres undefined) | < 1
26 | N#Cc1c(-c2ncnc(Nc3n[nH]c4c3CCCC4)n2)ccc2[nH][nH]c(=O)c12 | < 1
27 | O=c1[nH][nH]c2ccc(-c3cnnc(Nc4cc(C5CCCC5)[nH]n4)n3)cc12 | < 1
28 | O=c1[nH][nH]c2ccc(-c3nc(Nc4n[nH]c5cc(=O)n(-c6ccccc6)nc45)c4ccccc4n3)cc12 | < 1
29 | O=c1[nH][nH]c2ccc(-c3nc4c(c(Nc5n[nH]c6ccccc56)n3)N(Cc3ccccc3)CCC4)c(C(F)(F)F)c12 | < 1
30 | O=c1[nH][nH]c2cc(CC3CCCC(Nc4cc(C5CC5)[nH]n4)C3)ccc12 (centres undefined) | < 1
31 | Cc1cc(Nc2cc(C3CC3)[nH]n2)nc(Nc2ccc3c(=O)[nH][nH]c3c2)n1 | < 1
32 | CC1CCN(c2nc(Nc3n[nH]c4ccccc34)nc(-c3cc4c(=O)[nH][nH]c4cc3C(F)(F)F)n2)C1 (centres undefined) | < 1
33 | CCc1cc(Nc2cc(C)[nH]n2)nc(C2(c3ccc4c(=O)[nH][nH]c4c3)CCC2)n1 | < 1

Next, values leading:

Row | Ki [µM] | SMILES
34 | < 1 | O=c1[nH][nH]c2cc(SC(CCNc3ccccn3)Cc3ccccc3)ccc12 (centres undefined)
35 | < 1 | O=c1[nH][nH]c2cc(CC(CCNc3nccnn3)Cc3ccccc3)ccc12 (centres undefined)
36 | < 1 | O=c1[nH][nH]c2cc(Nc3nc(Nc4cc(C5CC5)[nH]n4)nc(-c4ccccc4)n3)ccc12
37 | < 1 | O=c1[nH][nH]c2cc(Nc3ncc(Nc4ccccc4)c(Nc4cc(C5CC5)[nH]n4)n3)ccc12
38 | < 1 | O=c1[nH][nH]c2cc(Nc3nc(Nc4ccc5c(=O)[nH][nH]c5c4)c4ccccc4n3)ccc12
39 | < 1 | O=c1[nH][nH]c2cc(Sc3nc(Nc4cc(C5CC5)[nH]n4)cc(-c4ccccc4)n3)ccc12
40 | < 1 | COc1ccc2c(Nc3cc(C)[nH]n3)nc(Sc3ccc4c(=O)[nH][nH]c4c3)nc2c1
41 | < 1 | Cn1cnc(NC(CCSc2ccc3c(=O)[nH][nH]c3c2)c2ccccc2)c1 (centres undefined)
42 | < 1 | Cc1cc(Nc2cc(Oc3ccc4c(=O)[nH][nH]c4c3)nc3ccccc23)n[nH]1
43 | < 1 | Cc1cnc(NCCC(=O)Oc2ccc3c(=O)[nH][nH]c3c2)s1
44 | < 1 | Cc1cc(Nc2nc(Oc3ccc4c(=O)[nH][nH]c4c3)cc3ccccc23)n[nH]1
45 | < 1 | O=c1[nH][nH]c2cc(NOCCNc3cc(C4CC4)[nH]n3)ccc12
46 | < 1 | CN(C)CCNC(=O)c1cc(Nc2n[nH]c3ccccc23)nc(Sc2ccc3c(=O)[nH][nH]c3c2)n1
47 | < 1 | O=C(CCCc1ccc2c(=O)[nH][nH]c2c1)Nc1nccnn1
48 | < 1 | O=c1[nH][nH]c2cc(Oc3cc(Nc4cc(C5CC5)[nH]n4)c4ccccc4n3)ccc12
49 | < 1 | CNC(=O)c1cc(Nc2cc(C)[nH]n2)nc(Sc2ccc3c(=O)[nH][nH]c3c2)n1
50 | < 1 | NCCc1cc(Nc2n[nH]c3ccccc23)nc(-c2ccc3[nH][nH]c(=O)c3c2C(F)(F)F)n1
51 | < 1 | O=c1[nH][nH]c2cc(Nc3cccc(Nc4ccccn4)c3)ccc12
52 | < 1 | O=c1[nH][nH]c2cc(OC(CCNc3ccccn3)Cc3ccccc3)ccc12 (centres undefined)
53 | < 1 | Cc1cc(Nc2nc(Sc3ccc4c(=O)[nH][nH]c4c3)nc3cc(OCCCN(C)C)ccc23)n[nH]1
54 | < 1 | Cn1cnc(NCCC(=O)Cc2ccc3c(=O)[nH][nH]c3c2)c1

Row | Ki [µM] | SMILES
55 | < 1 | COCc1cc(Nc2n[nH]c3ccccc23)nc(-c2ccc3[nH][nH]c(=O)c3c2)n1
56 | < 1 | O=c1[nH][nH]c2cc(SCCC(Nc3nccnn3)c3ccccc3)ccc12 (centres undefined)
57 | < 1 | Cc1cc(Nc2cc(-c3ccco3)[nH]n2)nc(COc2ccc3c(=O)[nH][nH]c3c2)n1
58 | < 1 | O=c1[nH][nH]c2cc(NC(CCNc3cc(C4CC4)[nH]n3)Cc3ccccc3)ccc12 (centres undefined)
59 | < 1 | Cc1cc(Nc2ccnc(Oc3ccc4c(=O)[nH][nH]c4c3)c2)n[nH]1
60 | < 1 | O=c1[nH][nH]c2cc(OC3CCC(Nc4ccccn4)C3)ccc12 (centres undefined)
61 | < 1 | NCCOc1cc(Nc2n[nH]c3ccccc23)nc(-c2cc3c(=O)[nH][nH]c3cc2C(F)(F)F)c1
62 | < 1 | Cc1cnc(NCCC(=O)Cc2ccc3c(=O)[nH][nH]c3c2)s1
63 | < 1 | Cn1cnc(NC(CCCc2ccc3c(=O)[nH][nH]c3c2)c2ccccc2)c1 (centres undefined)
64 | < 1 | O=c1[nH][nH]c2cc(OC(CCNc3nccnn3)Cc3ccccc3)ccc12 (centres undefined)
65 | < 1 | Cn1cnc(NC(=O)CCSc2ccc3c(=O)[nH][nH]c3c2)c1
66 | < 1 | O=c1[nH][nH]c2ccc(-c3nc(Nc4cc(C5CC5)[nH]n4)nc(-c4ccccc4)n3)cc12
67 | < 1 | O=c1[nH][nH]c2cc(SCCCNc3nccnn3)ccc12
68 | < 1 | O=c1[nH][nH]c2cc(NCCC(Nc3nccnn3)c3ccccc3)ccc12 (centres undefined)
69 | < 1 | O=C(CCSc1ccc2c(=O)[nH][nH]c2c1)Nc1nccnn1
70 | < 1 | Cn1cnc(NCCONc2ccc3c(=O)[nH][nH]c3c2)c1
71 | < 1 | Nc1ccc(Nc2ccc3c(=O)[nH][nH]c3c2)nc1Nc1cc(C2CC2)[nH]n1
72 | < 1 | O=c1[nH][nH]c2cc(Nc3nc(Nc4cc(C5CCCC5)[nH]n4)c4ccccc4n3)ccc12
73 | < 1 | Cc1cnc(NC(=O)CCOc2ccc3c(=O)[nH][nH]c3c2)s1
74 | < 1 | Cc1cnc(NC(CCOc2ccc3c(=O)[nH][nH]c3c2)c2ccccc2)s1 (centres undefined)
